Results as given in US20060167298A1, “Sulfated diglyceride derivatives, salts thereof, and processes for their preparation” (priority 2005, published 2006).

Columns and labels:
[1] = Foam test: solution shaken in a graduated cylinder; format: physicochemical
Method: Dioctanoyl glyceride (6.88 grams; 0.02 mole), sulfamic acid (2.14 gram; 0.022 mole) and ammonium sulfamate (0.34 gram; 0.00298 mole) were heated with stirring at 120-125° C. for 3 hours. The reaction mixture was a somewhat viscous brown liquid. The reaction mixture was treated with water to make a 10% solution by weight, and centrifuged to recover unreacted diglyceride.

[2] = Surface tension of aqueous solution at 25° C.; format: physicochemical
[3] = 20 ml of the 0.1% solution shaken in a 100 ml graduated cylinder for 20 full cycles
[4] = 0.1% by weight aqueous solution of the reaction mixture
[5] = 0.12% aqueous solution of the product in distilled water

Compound: CCCCCCCC(=O)OCC(COS(=O)(=O)O)OC(=O)CCCCCCC.N (centres unmarked) [Example 1 (ammonium salt), Sulfated Dioctanoyl Glyceride]
- foam persistence [1, 3]: one hour or more
- foam produced [1, 3]: 45 mL
- surface tension at 25° C. [2, 4]: 25.4 mN/m

Compound: CCCCCC(=O)OCC(COS(=O)(=O)O)OC(=O)CCCCC.N (centres unmarked) [Example 6 I, Ammonium Salt of Sulfated Dihexanoyl Glyceride]
- surface tension at 25° C. ([2]; 0.42% aqueous solution of the product): 35.6 mN/m

Compound: Mixed Sodium and Ammonium Salt of Sulfated Dihexanoyl Glyceride [Example 6 II]
- surface tension at 25° C. ([2]; 0.42% (by weight) solution of the reaction mixture, diluted from 10% solution (pH about 9) after centrifugation): 35.0 mN/m

Compound: Mixed Morpholinium, Ammonium Salt of Sulfated Dihexanoyl Glyceride [Example 3]
- surface tension at 25° C. ([2]; 0.44% aqueous solution of the reaction mixture): 36.5 mN/m

Compound: CCCCCCCC(=O)OCC(COS(=O)(=O)O)OC(=O)CCCCCCC.N (centres unmarked) [Example 1 (sodium salt), Sulfated Dioctanoyl Glyceride]
- surface tension at 25° C. [2, 4]: 26.3 mN/m

Compound: CCCCCC(=O)OCC(COS(=O)(=O)O)OC(=O)CCCCC.N (centres unmarked) [Example 2, Ammonium Salt of Sulfated Dihexanoyl Glyceride]
- surface tension at 25° C. ([2]; 0.4% by weight aqueous solution of the reaction mixture): 31.9 mN/m

Compound: Sodium Salt of Sulfated Dioctanoyl Glyceride [Example 5]
- foaming (observed) [1, 5]: foam very well
- surface tension at 25° C. [2, 5]: 26.8 mN/m

Compound: Sodium Salt of Sulfonated Didecanoyl Glyceride [Example 4]
- surface tension at 25° C. ([2]; 0.1 g sample of reaction mixture dissolved in distilled water, neutralized to pH about 8 with NaOH): 25.9 mN/m
